Data reported in paper PMC3048208 (British Journal of Cancer, 2011).
“Also recorded” adds a separate entry of the source. Counter-ions that a name gives are not always drawn. Like-named read-outs stand apart in the source and are kept apart here.

Assays:
[1] = Plasma pharmacokinetics of SB939 in patients, LC–MS/MS, non-compartmental; type: in vivo, human; details: for AUC(0-inf) / Cmax / half-life / Tmax: human, plasma
Procedure: Pre-dose PK assessment was also performed on day 15 of treatment.
Whole blood was collected into a 3-ml blood tubes containing K2EDTA anti-coagulant and centrifuged at 1000 g for 10 min at 4°C. Plasma was kept as an aliquot and frozen at −80°C. […] The samples were centrifuged at 1200 g for 10 min at 4°C, and the supernatant was stored at −80°C until analysis at MPI Research, Mattawan, MI, USA. Pharmacokinetic parameters were calculated by a non-compartmental method using WinNonlin 4.0 software (Pharsight Corporation, Mountain View, CA, USA). Peak plasma concentration (Cmax) and time to peak concentration (Tmax) were estimated from the plasma drug concentration–time curve. The elimination half-life (T1/2) during the log-linear terminal phase was calculated from the elimination rate constant determined by a linear regression analysis. The area under the concentration time curve extrapolated to infinity (AUC0−∞) was calculated by the log-linear trapezoidal method for the observed values, with extrapolation to infinity including at least three points on the terminal phase.

[2] = test system: acetylated histone H3 (AcH3) in PBMCs; assay: AcH3 levels in PBMCs by western blot; type: in vivo, human
Procedure: Based on the preclinical data showing parallel changes in AcH3 in PBMCs and tumour tissue, PBMCs were selected for study in the phase I trial ([Novotny-Diermayr et al, 2008]; [Yong et al, 2009]).
Whole blood samples for PD evaluation were taken in cycle 1, days 1 and 15 at pre-dose followed by 3 and 24 h post-dose. For each sample, blood was collected at room temperature in an 8-ml BD Vacutainer CPT tube (Becton, Dickson and Company, Franklin Lakes, NJ, USA). Blood samples were processed in a refrigerated centrifuge within 30 min of collection to preserve histone acetylation status. PBMCs were extracted from blood, processed to pellet form and stored at −80°C. Levels of AcH3 in PBMCs were determined using a validated western blot technique ([Novotny-Diermayr et al, 2008]).

[3] = test system: other zinc-binding enzymes; set-up: method as in Novotny-Diermayr et al, 2010; details: in vitro; ref Novotny-Diermayr et al, 2010; cited from earlier work
[4] = set-up: method as in Novotny-Diermayr et al, 2010; details: animal pre-clinical models; ref Novotny-Diermayr et al, 2010; cited from earlier work
HCT-116 cells = test system: HCT-116 cells; set-up: method as in Novotny-Diermayr et al, 2010; details: ref Novotny-Diermayr et al, 2010; cited from earlier work
dog = details: 3 days per week in a 28-day cycle; cited from earlier work
[5] = test system: patients with solid tumours; set-up: method as in Yong et al, 2008; details: three times weekly, 3 out of 4 weeks; ref Yong et al, 2008; cited from earlier work
[6] = test system: wide variety of cell lines; set-up: method as in Novotny-Diermayr et al, 2010; details: in vitro; ref Novotny-Diermayr et al, 2010; cited from earlier work
cancer cells = test system: cancer cells; set-up: method as in Novotny-Diermayr et al, 2010; details: ref Novotny-Diermayr et al, 2010; cited from earlier work
[7] = test system: xenograft models of colon (HCT-116), ovarian (A2780) and prostate (PC3, DU145) carcinomas; set-up: method as in Novotny-Diermayr et al, 2010; details: ref Novotny-Diermayr et al, 2010, cited from earlier work
class I, II and IV HDACs = details: in vitro; ref Novotny-Diermayr et al, 2010; cited from earlier work
[8] = oral, 10 mg, Day 1, dose level 1, 10 mg, 3 days every 2 weeks
[9] = oral, 10 mg, Day 1, dose level 2, 10 mg
[10] = oral, 10 mg, Day 3 or 5, dose level 1, 10 mg, 3 days every 2 weeks
[11] = oral, 10 mg, Day 3 or 5, dose level 2, 10 mg
[12] = oral, 20 mg, Day 1, dose level 3, 20 mg
[13] = oral, 20 mg, Day 3 or 5, dose level 3, 20 mg
[14] = oral, 30 mg, Day 1, dose level 4, 30 mg
[15] = oral, 30 mg, Day 3 or 5, dose level 4, 30 mg
[16] = oral, 50 mg, Day 1, dose level 5, 50 mg
[17] = oral, 50 mg, Day 3 or 5, dose level 5, 50 mg
[18] = oral, 60 mg, Day 1, dose level 5.5, 60 mg
[19] = oral, 60 mg, Day 3 or 5, dose level 5.5, 60 mg
[20] = oral, 70 mg, Day 1, dose level 6, 70 mg
[21] = oral, 70 mg, Day 3 or 5, dose level 6, 70 mg
[22] = oral, 90 mg, Day 1, dose level 7, 90 mg
[23] = oral, 90 mg, Day 3 or 5, dose level 7, 90 mg

CCCCc1nc2cc(/C=C/C(=O)NO)ccc2n1CCN(CC)CC [SB939, 3-[2-butyl-1-(2-diethylaminoethyl)-1H-benzoimidazol-5-yl]-N-hydroxyacrylami-hydrochloride]
Dose proportionality of mean AUC ([1]; between 10 and 90 mg): dose-proportional increases in AUC; also recorded: increased dose proportionally
Accumulation on Day 5 compared with Day 1 ([1]; daily x 5 dosing): no accumulation
AUC(0-inf) [1, 8]: 127 ng·h/mL
Cmax [1, 8]: 14.6 ng/mL
half-life ([1]; oral, 10 mg, Day 1, dose level 1, 10 mg, 3 days every 2 weeks, read-out: T1/2, mean (converted)): 7.1 h
Tmax ([1]; oral, 10 mg, Day 1, dose level 1, 10 mg, 3 days every 2 weeks, read-out: Tmax, mean): 2.5 h
AUC(0-inf) [1, 9]: 137 ng·h/mL
Cmax [1, 9]: 19.5 ng/mL
half-life ([1]; oral, 10 mg, Day 1, dose level 2, 10 mg, read-out: T1/2, mean (converted)): 8.6 h
Tmax ([1]; oral, 10 mg, Day 1, dose level 2, 10 mg, read-out: Tmax, mean): 1.1 h
AUC(0-inf) [1, 10]: 147 ng·h/mL
Cmax [1, 10]: 18.3 ng/mL
half-life ([1]; oral, 10 mg, Day 3 or 5, dose level 1, 10 mg, 3 days every 2 weeks, read-out: T1/2, mean (converted)): 8.3 h
Tmax ([1]; oral, 10 mg, Day 3 or 5, dose level 1, 10 mg, 3 days every 2 weeks, read-out: Tmax, mean): 1.3 h
AUC(0-inf) [1, 11]: 188 ng·h/mL
Cmax [1, 11]: 23.3 ng/mL
half-life ([1]; oral, 10 mg, Day 3 or 5, dose level 2, 10 mg, read-out: T1/2, mean (converted)): 8.1 h
Tmax ([1]; oral, 10 mg, Day 3 or 5, dose level 2, 10 mg, read-out: Tmax, mean): 1.3 h
AUC(0-inf) [1, 12]: 244 ng·h/mL
Cmax [1, 12]: 45.9 ng/mL
half-life ([1]; oral, 20 mg, Day 1, dose level 3, 20 mg, read-out: T1/2, mean (converted)): 5.9 h
Tmax ([1]; oral, 20 mg, Day 1, dose level 3, 20 mg, read-out: Tmax, mean): 1.5 h
AUC(0-inf) [1, 13]: 424 ng·h/mL
Cmax [1, 13]: 51.3 ng/mL
half-life ([1]; oral, 20 mg, Day 3 or 5, dose level 3, 20 mg, read-out: T1/2, mean (converted)): 7.7 h
Tmax ([1]; oral, 20 mg, Day 3 or 5, dose level 3, 20 mg, read-out: Tmax, mean): 1.6 h
AUC(0-inf) [1, 14]: 384 ng·h/mL
Cmax [1, 14]: 55.8 ng/mL
half-life ([1]; oral, 30 mg, Day 1, dose level 4, 30 mg, read-out: T1/2, mean (converted)): 8.6 h
Tmax ([1]; oral, 30 mg, Day 1, dose level 4, 30 mg, read-out: Tmax, mean): 1.8 h
AUC(0-inf) [1, 15]: 544 ng·h/mL
Cmax [1, 15]: 74.3 ng/mL
half-life ([1]; oral, 30 mg, Day 3 or 5, dose level 4, 30 mg, read-out: T1/2, mean (converted)): 8.8 h
Tmax ([1]; oral, 30 mg, Day 3 or 5, dose level 4, 30 mg, read-out: Tmax, mean): 1.6 h
AUC(0-inf) [1, 16]: 661 ng·h/mL
Cmax [1, 16]: 124 ng/mL
half-life ([1]; oral, 50 mg, Day 1, dose level 5, 50 mg, read-out: T1/2, mean (converted)): 5.6 h
Tmax ([1]; oral, 50 mg, Day 1, dose level 5, 50 mg, read-out: Tmax, mean): 1.6 h
AUC(0-inf) [1, 17]: 794 ng·h/mL
Cmax [1, 17]: 101 ng/mL
half-life ([1]; oral, 50 mg, Day 3 or 5, dose level 5, 50 mg, read-out: T1/2, mean (converted)): 8.9 h
AUC(0-inf) [1, 18]: 1030 ng·h/mL
Cmax [1, 18]: 210 ng/mL
half-life ([1]; oral, 60 mg, Day 1, dose level 5.5, 60 mg, read-out: T1/2, mean (converted)): 6.7 h
Tmax ([1]; oral, 60 mg, Day 1, dose level 5.5, 60 mg, read-out: Tmax, mean): 1.2 h
AUC(0-inf) [1, 19]: 1630 ng·h/mL
Cmax [1, 19]: 262 ng/mL
half-life ([1]; oral, 60 mg, Day 3 or 5, dose level 5.5, 60 mg, read-out: T1/2, mean (converted)): 6.9 h
Tmax ([1]; oral, 60 mg, Day 3 or 5, dose level 5.5, 60 mg, read-out: Tmax, mean): 1.3 h
AUC(0-inf) [1, 20]: 1050 ng·h/mL
Cmax [1, 20]: 178 ng/mL
half-life ([1]; oral, 70 mg, Day 1, dose level 6, 70 mg, read-out: T1/2, mean (converted)): 7 h
Tmax ([1]; oral, 70 mg, Day 1, dose level 6, 70 mg, read-out: Tmax, mean): 1.6 h
AUC(0-inf) [1, 21]: 1130 ng·h/mL
Cmax [1, 21]: 160 ng/mL
half-life ([1]; oral, 70 mg, Day 3 or 5, dose level 6, 70 mg, read-out: T1/2, mean (converted)): 6.4 h
Tmax ([1]; oral, 70 mg, Day 3 or 5, dose level 6, 70 mg, read-out: Tmax, mean): 1.5 h
AUC(0-inf) [1, 22]: 1130 ng·h/mL
Cmax [1, 22]: 229 ng/mL
half-life ([1]; oral, 90 mg, Day 1, dose level 7, 90 mg, read-out: T1/2, mean (converted)): 6.4 h
Tmax ([1]; oral, 90 mg, Day 1, dose level 7, 90 mg, read-out: Tmax, mean): 1 h
AUC(0-inf) [1, 23]: 1230 ng·h/mL
Cmax [1, 23]: 116 ng/mL
half-life ([1]; oral, 90 mg, Day 3 or 5, dose level 7, 90 mg, read-out: T1/2, mean (converted)): 6.1 h
Tmax ([1]; oral, 90 mg, Day 3 or 5, dose level 7, 90 mg, read-out: Tmax, mean): 1.5 h
Tmax ([1]; po, 10 to 90 mg oral, read-out: Tmax, range over dose levels): 1 to 2.5 h
half-life ([1]; po, 10 to 90 mg oral, read-out: Elimination (terminal) half-life, range over dose levels): 5.6 to 8.9 h
Dose–PD relationship of AcH3 ([2]; 10 to 90 mg): no clear dose–PD relationship
Change in AcH3 in PBMCs ([2]; cycle 1, 3 h or 24 h post-treatment): Increases in AcH3 were seen
Effects on other zinc-binding enzymes [3]: no effects
Increase in bioavailability compared with vorinostat [4]: > 4 fold
Longer half-life compared with vorinostat [4]: 3.3 fold
Effectiveness compared with vorinostat (HCT-116 cells): more effective than vorinostat
No observed adverse effect level (dog): 60 mg m^−2 per day
RPTD [5]: 60 mg
Anti-proliferative activities [6]: significant anti-proliferative activities
Immunoblot changes after treatment (cancer cells): accumulation of acetylated histone H3 (AcH3) and acetylated α-tubulin, as well as increased expression levels of the cyclin dependant kinase inhibitor p21
Anti-tumour efficacy ([7]; HCT-116, A2780, PC3, DU145 xenografts, MV4-11, HL-60 and B cell lymphoma murine models): dose-dependent anti-tumour efficacy
Drug accumulation and inhibition of histone deacetylation in tumour tissues compared with vorinostat ([7]; preclinical experiments): prolonged drug accumulation and more sustained inhibition of histone deacetylation
Selectivity for class I, II and IV HDACs compared with class III HDACs (class I, II and IV HDACs): > 1000 fold
